Reference: US7420051B2, “Synthetic process for the manufacture of an ecteinaschidin compound” (Pharma Mar, S.A., priority 2000, dated 2008)

Columns and labels:
Assay type in all cases: cell-based
CV-1 = test: Cytotoxic activity screening, CV-1 cells; details: Cercopithecidae
DU-145 = test: Cytotoxic activity screening, DU-145 cells; details: Homo sapiens, DU-145, DU-145 cells
[1] = system: P-388 (suspension culture of a lymphoid neoplasm from DBA/2 mouse); test: Cytotoxic activity screening, P-388 cells; details: Mus musculus, P388, 72 h, three days of incubation, approximate IC50
Method: (§1) Cell Cultures. Cells were maintained in logarithmic phase of growth in Eagle's Minimum Essential Medium, with Earle's Balanced Salts, with 2.0 mM L-glutamine, with non-essential amino acids, without sodium bicarbonate (EMEM/neaa); supplemented with 10% Fetal Calf Serum (FCS), 10^−2 M sodium bicarbonate and 0.1 g/l penicillin-G+streptomycin sulfate.
(§2) A simple screening procedure has been carried out to determine and compare the antitumour activity of these compounds, using an adapted form of the method described by Bergeron et al (1984). The tumour cell line employed have been P-388 (suspension culture of a lymphoid neoplasm from DBA/2 mouse), A-549 (monolayer culture of a human lung carcinoma), HT-29 (monolayer culture of a human colon carcinoma) and MEL-28 (monolayer culture of a human melanoma).
P-388 cell were seeded into 16 mm wells at 1×10^4 cells per well in 1 ml aliquots of MEM 5FCS containing the indicated concentration of drug. A separate set of cultures without drug was seeded as control growth to ensure that cells remained in exponential phase of growth. All determinations were carried out in duplicate.

[2] = system: A-549 (monolayer culture of a human lung carcinoma); test: Cytotoxic activity screening, A-549 cells; details: Homo sapiens, A549, 72 h, three days of incubation, Crystal Violet, approximate IC50
In short: (§3)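 Human monolayer lines seeded at 2×10^4 cells/well in MEM with 10% FCS containing drug, in duplicate. After 3 days at 37° C, 10% CO2, wells stained with 0.1% Crystal Violet. Approximate IC50 estimated from growth versus drug-free controls.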

[3] = system: HT-29 (monolayer culture of a human colon carcinoma); test: Cytotoxic activity screening, HT-29 cells; details: Homo sapiens, HT-29, 72 h, three days of incubation, Crystal Violet, approximate IC50
In short: as §3

[4] = system: MEL-28 (monolayer culture of a human melanoma); test: Cytotoxic activity screening, MEL-28 cells; details: SK-MEL-28, 72 h, three days of incubation, Crystal Violet, approximate IC50
Method: as §1, §2
A-549, HT-29 and MEL-28 were seeded into 16 mm wells at 2×10^4 cells per well in 1 ml aliquots of MEM 10FCS containing the indicated concentration of drug. A separate set of cultures without drug was seeded as control growth to ensure that cells remained in exponential phase of growth. All determinations were carried out in duplicate. After three days of incubation at 37° C., 10% CO2 in a 98% humid atmosphere, the wells were stained with 0.1% Crystal Violet. An approximately IC50 was determined by comparing the growth in wells with drug to the growth in wells control.

Molecule `C=CCOc1c(C)c2c(c3c1CC1[C@H]4c5c(cc(C)c(OC)c5OCOC)C[C@@H]([C@H](C#N)N1[C@H]3CNC(=O)OCC(Cl)(Cl)Cl)N4C)OCO2` (stereo partly shown) has an IC50 (CV-1) of 0.13 µM and an IC50 (DU-145) of 0.13 µM.
For `COc1c(C)cc2c(c1O)[C@@H]1C3Cc4c(O)c(C)c5c(c4[C@H](CN4C(=O)c6ccccc6C4=O)N3[C@@H](C#N)[C@H](C2)N1C)OCO5` (stereo partly shown), the IC50 [1] was 0.001 µM, the IC50 [2] was 0.001 µM and the IC50 [3] was 0.001 µM. It also gave an IC50 [4] of 0.001 µM, an IC50 (CV-1) of 0.001 µM and an IC50 (DU-145) of 0.001 µM.
Molecule `C=CCOc1c(C)c2c(c3c1CC1[C@H]4c5c(cc(C)c(OC)c5O)C[C@@H]([C@H](C#N)N1[C@H]3CNC(=O)OCC(Cl)(Cl)Cl)N4C)OCO2` (stereo partly shown) has an IC50 (CV-1) of 0.014 µM and an IC50 (DU-145) of 0.014 µM.
